Consider two compounds from BindingDB's records for patent US11590142 (Bugworks Research, 2023).

This experiment has as its target DNA gyrase (Escherichia coli, UniProt P0AES4+P0AES6). As to the kind of experiment: Enzyme Inhibition Assay.

Structures are written as SMILES.

Description: The reactions were then started with the addition of 60 ng relaxed pBR322 plasmid DNA and continued for 45 min at 37° C. The reaction mixture contained 35 mM Tris.HCl (pH 7.5), 24 mM KCl, 1.8 mM spermidine, 4 mM MgCl2, 2 mM DTT, 6.5% (w/v) glycerol, 0.1 mg/mL BSA, and 1 mM ATP. The reaction was then stopped by addition of 0.75 L of Proteinase K (20 mg/mL) and 3 μL of 2% SDS and further incubated at 37° C. for 30 min. This was followed by the addition of 4 μL of STEB (40% (w/v) sucrose, 100 mM Tris-HCl pH8, 1 mM EDTA, 0.5 mg/ml Bromophenol Blue), and the supercoiled/relaxed forms of plasmid DNA were separated by agarose gel electrophoresis. The 1% agarose gels were run for 3 h at 4V/cm in 1×TAE (40 mM Tris, 20 mM Acetic acid, 1 mM EDTA). To visualize the DNA the gels were stained for 10 min with 0.7 g/mL ethidium bromide and excess dye was removed by several washes with water. IC50 were determined by quantifying the supercoiled and relaxed DNA in each of the reactions from a gel image by a densitometric method using the Quantity One Software (Bio-rad).

`Cn1c(=O)cnc2ccc(OCCNC[C@H]3CN(c4ccc5c(n4)NC(=O)CO5)C(=O)O3)nc21` [US11590142, Compound 3] showed an IC50 of 47 nM. In other words, the double-digit nanomolar range. The compound `Cn1c(=O)ccc2ncc(OCCNC[C@H]3CN(c4ccc5c(n4)NC(=O)CO5)C(=O)O3)nc21` [US11590142, Compound 5] showed an IC50 of 32 nM.
